System: Wnt/β-catenin transcription
Experiment: TOPFlash Reporter Assay (Wnt-3A-stimulated HEK293 cells stably transfected with p8xTOPFlash)
Format: cell-based
Conditions: for Inhibition Wnt/β-catenin transcription TopFlash, % inhibition / IC50: HEK293 TOPFlash cells, Wnt-3A conditioned medium, 8 hour treatment; for IC50: Homo sapiens, read-out: Inhibition Wnt/β-catenin transcription TopFlash IC50
Experimental: Wnt-3A conditioned medium was prepared using L WNT-3A cells (ATCC(CRL-2647™) purchased from ATCC. Conditioned medium was obtained following published protocols (http://www.atcc.org/Products/All/CRL-2647.aspx#culturemethod) (Chen, M. Y.; Wang, J. B.; Lu, J. Y.; Bond, M. C.; Ren, X. R.; Lyerly, H. K.; Barak, L. S.; Chen, W. Biochemistry 2009, 48, 10267). HEK293 cells were stably transfected with p8×TOPFlash, Renilla luciferase plasmid pRL-TK (Promega), and pLKO.1 as previously published (Chen, M. Y.; Wang, J. B.; Lu, J. Y.; Bond, M. C.; Ren, X. R.; Lyerly, H. K.; Barak, L. S.; Chen, W. Biochemistry 2009, 48, 10267). Stably transfected cells were seeded in 100 μl of cell growth medium/well in 96-well plates at 100% confluency. Fifty microliters of Wnt-3A conditioned medium containing the chemical compounds to be tested or DMSO was added to each well. After an 8 hour treatment, the cells were washed once with PBS and lysed with 55 μl of Passive Lysis Buffer supplied in the Dual-Luciferase Reporter Assay kit (Promega, Madison, Wis.). Twenty-five microliters of cell lysate was used for measuring luciferase activity in a 96-well plate reader (FluoStar Optima, BMG Labtech, Chicago, Ill.). Data were fit using GraphPad Prism (mean±SEM, n>=2).
Data is from a single experiment unless otherwise noted. Data that is an average of two experiments is noted as “n=2” while data that is an average of three or more experiments is presented as the average plus or minus the standard error of the mean.

`O=C(Nc1ccncc1Cl)c1cc(Cl)ccc1O` [Compound 1, 5-chloro-N-(3-chloropyridin-4-yl)-2-hydroxybenzamide] was tested, and the “Inhibition Wnt/β-catenin transcription TopFlash, % inhibition” value (at 10 μM) was 80% inhibition at 10 μM.

In the case of `CC(=O)Oc1ccccc1C(=O)Nc1ncc([N+](=O)[O-])s1` [nitazoxanide, reference compound], the “Inhibition of the Wnt/Frizzled signaling pathway (statement in words)” value is reported as “inhibitor of the Wnt/Frizzled signaling pathway”.

For `O=C(Nc1ncc([N+](=O)[O-])s1)c1ccccc1O` [B, reference compound], the IC50 was greater than 12 µM.

With `CC(=O)Oc1ccccc1C(=O)Nc1ncc([N+](=O)[O-])s1` [C, reference compound] the IC50 was 11.4 µM.

For `O=C(Nc1ccc([N+](=O)[O-])cc1Cl)c1cc(Cl)ccc1O` [A, reference compound], the IC50 was 0.49 µM.

`O=C(Nc1ncc(C(F)(F)F)cc1Cl)c1cc(Cl)ccc1O` [Compound 4, 5-chloro-N-(3-chloro-5-(trifluoromethyl)pyridin-2-yl)-2-hydroxybenzamide] showed an IC50 of 17.4 µM.

For `O=C(Nc1ccc([N+](=O)[O-])cn1)c1cc(Cl)ccc1O` [Compound 2, 5-chloro-2-hydroxy-N-(5-nitropyridin-2-yl)benzamide], the “Inhibition Wnt/β-catenin transcription TopFlash, % inhibition” value (at 2 μM) was 75% inhibition at 2 μM.

For `O=C(Nc1ncc([N+](=O)[O-])s1)c1cc(Cl)ccc1O` [Compound 5, 5-chloro-2-hydroxy-N-(5-nitrothiazol-2-yl)benzamide], the IC50 was 8.8 µM.

`O=C(Nc1ccc(C(F)(F)F)cn1)c1cc(Cl)ccc1O` [Compound 3, 5-chloro-2-hydroxy-N-(5-(trifluoromethyl)pyridin-2-yl)benzamide] gave an IC50 of 1.67 µM.

Reference: US20190070154A1, “NEW METHODS OF USE FOR AN ANTI-DIARRHEA AGENT” (Duke University, priority 2015, published 2019)
